{"source": "patent US20230038373A1", "about": "“STABILE CONJUGATE” (Glykos Biomedical OY, priority 2019, published 2023)", "key": {"[1]": {"experiment": "Stability of kifunensine ester compounds in mouse serum (MALDI-TOF MS)", "format": "in vitro ADME", "conditions": "4 days' incubation in mouse serum at +37° C.", "description": "(§1) Serum was obtained from laboratory mice according to ethical permission, or from healthy human volunteers, and prepared with standard procedures. Buffer stability test were performed either in phosphate-buffered saline (PBS, Gibco) or standard cell culture medium recommended for SK-BR-3 cells by the ATCC (about neutral pH). Payload-linker molecules were incubated in serum, buffer or medium, after which the incubation mixture was analyzed by MALDI-TOF MS as described above. […] Similar studies were also conducted with the 33DFTG-ester compounds, further verifying the observation of stabilization by carboxylic acid modifications of the ester against esterase hydrolysis. However, all the kifunensine ester compounds, when applied in 10 μM concentration to SK-BR-3 cell culture for three days, were active in mannosidase I inhibition (as shown by MALDI-TOF MS analysis of neutral N-glycans of the SK-BR-3 cells after the incubation as described below), showing that regardless of the relative protection from serum esterase hydrolysis, the esters could still be hydrolysed in cells to liberate the active payload."}, "[2]": {"experiment": "Stability of kifunensine ester compounds in buffered cell culture medium (MALDI-TOF MS)", "format": "physicochemical", "conditions": "5 days' incubation in buffered cell culture medium at +37° C.; signal vs hydrolysis product kifunensine", "description": "as §1"}, "[3]": {"system": "immature dendritic cells (iDCs) with SK-BR-3 cells", "experiment": "Dendritic cell activation assay (iDC / SK-BR-3 co-culture, fractalkine secretion)", "format": "cell-based, human", "conditions": "5 nM test compound", "source_text": "Monocytes were isolated from human peripheral blood (buffy coat) from healthy adult donors (Finnish Red Cross Blood Service) by using magnetic-activated microbead based cell sorting for CD14 positive cells (Miltenyi Biotec). Monocytes were differentiated to immature dendritic cells (iDCs) by using Mo-DC Differentiation Medium (Miltenyi Biotec) according the manufacturer's instructions. On day 6, to analyze cell surface expression of maturation markers, the iDCs were labeled with specific monoclonal antibodies for CD209 (R&D Systems) and CD14 (eBioscience). Nonspecific antibody binding was assessed using appropriate isotype controls. The iDCs were used for co-culture experiment on day 7.\nSK-BR-3 cells (ATCC) were cultured in DMEM (Gibco) containing GlutaMAX and supplemented with 10% heat-inactivated fetal bovine serum (FBS, Gibco). SK-BR-3 cells were plated in 96-well plate (5000 c/well) in the presence or absence of […] kifunensine (Carbosynth Limited) and cultured for 5 days. Before start of the co-culture, SK-BR-3 cells were washed twice with RPMI 1640 medium (Gibco). Differentiated iDCs were collected and 0.11×10^6 cells/well were added together with the test compounds to SK-BR-3 cells and cells were incubated for 24 h at +37° C. in 5% CO2. The experiment medium was RPMI 1640 medium (Gibco) containing 10 mM Hepes and 2 mM glutamine and supplemented with 10% FBS (Gibco). All treatments were performed as duplicates. […] Phorbol 12-myristate 13-acetate (PMA, Abcam) was used as positive control. After 24 h co-culture of iDCs and SKBR-3 cells, the cell supernatants were collected and centrifuged (3000 g, 5 min, +4° C.) to remove cells and debris. The supernatants were frozen and subjected to cytokine and chemokine analysis with Human Cytokine 48-Plex Discovery Assay (EVE Technologies, Canada)."}, "[4]": {"system": "processing α-mannosidase", "experiment": "N-glycan profile of JIMT-1 cancer cells after kifunensine or ADC", "format": "cell-based", "conditions": "JIMT-1 cells, 3-4 days", "description": "(§2) JIMT-1 cancer cells (DSMZ-German Collection of Microorganisms and Cell Cultures; variable/medium HER2 expression) and HCC-1954 cancer cells (ATCC; high HER2 expression) were cultured according to the manufacturers' instructions in standard cell culture conditions and incubated for 3-4 days with either […] kifunensine or trastuzumab-kifunensine ADCs. Effect on N-glycan profiles of the cells was analyzed by isolating cellular N-glycans and MALDI-TOF MS as described above."}, "[5]": {"system": "processing α-mannosidase", "experiment": "N-glycan profile of HCC-1954 cancer cells after kifunensine or ADC", "format": "cell-based", "conditions": "HCC-1954 cells, 3-4 days; 10 pM kifunensine; 10 nM or 100 nM ADC", "description": "as §2"}, "[6]": {"system": "mannosidase I", "experiment": "N-glycan profiling of SK-BR-3 cells after inhibitor/ADC treatment (mannosidase I inhibition)", "format": "cell-based", "conditions": "10 μM, 3 days", "protocol": "SK-BR-3 breast cancer cells (ATCC) were cultured in recommended conditions and incubated with glycosylation inhibitors and ADCs for three days. The cells were then subjected to N-glycan profiling with MALDI-TOF MS essentially as described in Leijon et al. 2017, J Clin Endocrinol Metab 102(11):3990-4000, although without the deparaffinization step."}, "[7]": {"system": "B16-F10 melanoma subcutaneous tumor", "experiment": "Syngeneic B16-F10 melanoma subcutaneous tumor model", "format": "in vivo, C57BL/6J mice", "conditions": "day 15; three 10 mg/kg doses on days 2, 7 and 12 (i.v.; anti-PD-1 i.p.); control group 1534 mm^3", "description": "Treatment groups (n=7) were administered with three 10 mg/kg intravenous infusions of antibody or ADC to the tail vein in PBS on days 2, 7 and 12 after subcutaneous inoculation of 0.5 million B16-F10 cells in each mouse. Anti-PD-1 antibody (n=7) was administered by intraperitoneal injection. Control mice (n=5) received no injections. Plotting of the average tumor size was stopped when first mouse in the group was killed due to tumor growth.\nTumor growth was followed by palpation. After caliper measurement, tumor volume was calculated according to 0.5×length×width^2. The first dosings were administered 2 days after inoculation and subsequent doses at 5 days' intervals. Mice were randomly divided into study groups.\nThe B16-F10 tumor-bearing mice (strain C57BL/6J) were administered as described above with three 10 mg/kg i.v. (intravenous infusion to the tail vein in PBS) doses each of avelumab, avelumab-cyclo-MeMe-kifunensine (DAR=21-28) and avelumab-AANA-kifunensine (DAR=8) as well as with three 10 mg/kg i.p. (intraperitoneal injection in PBS) doses of anti-mouse-PD-1 antibody (InvivoMAb, clone RMP1-14, rat IgG2a kappa). Control mice received no injections. All study groups included 7 tumor-bearing mice while the control group included 5 tumor-bearing mice."}, "[8]": {"system": "mannosidase I", "experiment": "ADC activity in SK-BR-3 cells after incubation of the ADC in human and mouse sera", "format": "cell-based", "conditions": "7 days' incubation in both human and mouse sera, then 10 nM in SK-BR-3 culture for three days"}, "[9]": {"system": "HCC-1954 xenograft tumors", "experiment": "HCC-1954 xenograft: N-glycan profiling of tumors and tissues after ADC dosing", "format": "in vivo, mice (Balb/cAnNRj-Foxn1nu-nu)", "conditions": "three 10 mg/kg i.v. doses, tumors collected on day 8", "description": "The study was performed at the TCDM/Central Animal Laboratory, University of Turku, Finland, according to the appropriate ethical committee approval. Cells for inoculation to mice were prepared in vigorous exponential growth phase. 5 million cells in 50% Matrigel were inoculated s.c. to the flank of each mouse. Clinical signs and general behavior of the animals was observed regularly. […] Tumor growth was followed by palpation. After caliper measurement, tumor volume was calculated according to 0.5×length×width^2. The first dosings were administered when average tumor volume reached […]. Mice were evenly divided into study groups so that each group received similar distribution of different-sized tumors and the average tumor volumes were similar in each group. The mice received two additional dosings at 3 days and 6 days after the first dosing. Control mice received no dosings. At the end of the study on day 8 after the first dosing, the mice were sacrificed and representative samples of the tumors, blood (serum), liver, spleen, skin and muscle were taken and frozen for analyses.\nTest substances were prepared as described above. […] The samples were subjected to N-glycan profiling with MALDI-TOF MS essentially as described above."}, "[10]": {"conditions": "SK-BR-3 + iDCs 24 h co-culture, SK-BR-3 pretreated with 10 pM kifunensine for 5 days"}}, "note": "Where “and” joins values, the source holds several entries; their conditions need not be identical. Equal entries are not always repeated.", "data": [{"molecule": "CC(C)(C)C(=O)OC[C@@H]1[C@@H](O)[C@H](O)[C@H](O)[C@H]2NC(=O)C(=O)N12", "note": "[6-(2,2-dimethyl)propanoyl-kifunensine, 9-(2,2-dimethylpropionyl)-kifunensine ester]", "values": [{"measurement": "compound detected after incubation in mouse serum (ester hydrolysis)", "setting": "[1]", "result": "still present"}, {"measurement": "stability against chemical hydrolysis in neutral pH", "setting": "[2]", "result": "reasonably stable"}]}, {"molecule": "CC[C@H](C)C(=O)OC[C@@H]1[C@@H](O)[C@H](O)[C@H](O)[C@H]2NC(=O)C(=O)N12", "note": "[6-(2-methyl)butanoyl-kifunensine, 9-(2-methylbutanoyl)-kifunensine ester]", "values": [{"measurement": "compound detected after incubation in mouse serum (ester hydrolysis)", "setting": "[1]", "result": "not detected on day 4"}, {"measurement": "stability against chemical hydrolysis in neutral pH", "setting": "[2]", "result": "reasonably stable"}]}, {"molecule": "CCCC(=O)OC[C@@H]1[C@@H](O)[C@H](O)[C@H](O)[C@H]2NC(=O)C(=O)N12", "note": "[6-butanoyl-kifunensine, 9-butanoyl-kifunensine ester]", "values": [{"measurement": "compound detected after incubation in mouse serum (ester hydrolysis)", "setting": "[1]", "result": "not detected on day 4"}, {"measurement": "stability against chemical hydrolysis in neutral pH", "setting": "[2]", "result": "reasonably stable"}]}, {"molecule": "O=C(O)CCC(=O)OC[C@@H]1[C@@H](O)[C@H](O)[C@H](O)[C@H]2NC(=O)C(=O)N12", "note": "[6-succinyl-kifunensine, 9-succinyl-kifunensine]", "values": [{"measurement": "compound detected after incubation in mouse serum (ester hydrolysis)", "setting": "[1]", "result": "still present"}, {"measurement": "stability against chemical hydrolysis in neutral pH", "setting": "[2]", "result": "reasonably stable"}]}, {"molecule": "CCCCCCCCCCCCCC(=O)O[C@@H]1[C@@H](C)[C@@]2(O)[C@@H](C=C(CO)C[C@]3(O)C(=O)C(C)=C[C@@H]23)[C@@H]2C(C)(C)[C@]12OC(C)=O", "note": "[PMA, Phorbol 12-myristate 13-acetate]", "values": [{"measurement": "Fractalkine", "setting": "[3]; [10]", "result": 158.90, "unit": "pg/mL"}, {"measurement": "Fractalkine", "setting": "[3]; SK-BR-3 + iDCs 24 h co-culture, without kifunensine pretreatment", "result": 45.18, "unit": "pg/mL"}, {"measurement": "Fractalkine", "setting": "[3]; iDCs without SK-BR-3 cells", "result": 8.27, "unit": "pg/mL"}]}, {"molecule": "O=C1N[C@@H]2[C@@H](O)[C@@H](O)[C@H](O)[C@@H](CO)N2C1=O", "note": "[kifunensine]", "values": [{"measurement": "N-glycan profile change (Man9 increase, complex-type decrease) relative to HCC-1954 cells", "setting": "[4]", "result": "less intensive"}, {"measurement": "Fractalkine", "setting": "[3]; [10]", "result": "121 pg/mL and 120.94 pg/mL"}, {"measurement": "relative proportion of complex-type N-glycans", "setting": "[5]", "result": "drastically diminished"}, {"measurement": "average number of mannose residues (Man) in the Man5-9GlcNAc2 glycan signal series", "setting": "[6]", "result": "over 8.5"}]}, {"molecule": "avelumab: recombinant fully human IgG1 anti-PD-L1 antibody (Bavencio)", "values": [{"measurement": "average tumor volume", "setting": "[7]", "result": 472, "unit": "mm^3"}]}, {"molecule": "trastuzumab-[DBCO-PEG4-(octakis-amino)-γ-cyclodextrin-(9-(di-3-thio-propanoyl)-kifunensine)7]4 [trastuzumab-cyclo-kifunensine]", "values": [{"measurement": "reduction of activity after serum incubation", "setting": "[8]", "result": "over 50%"}, {"measurement": "average mannose residues (Man) in the Man5-9GlcNAc2 glycan signal series of tumors", "setting": "[9]", "result": 7.36}, {"measurement": "proportion of complex-type N-glycans in the tumors", "setting": "[9]", "result": 11, "unit": "%"}, {"measurement": "proportion of high-mannose type N-glycans of the total neutral N-glycans in the tumors", "setting": "[9]", "result": 78, "unit": "%"}]}, {"molecule": "trastuzumab-[GalNAz-DBCO-PEG4-(octakis-amino)-γ-cyclodextrin-(9-(4-methyl-4-thio-butanoyl-3-thiopropanoyl)-kifunensine)7]4 [trastuzumab-cyclo-Me-kifunensine]", "values": [{"measurement": "N-glycan profile change (Man9 increase, complex-type decrease) relative to HCC-1954 cells", "setting": "[4]", "result": "less intensive"}, {"measurement": "average mannose residues (Man) in the Man5-9GlcNAc2 glycan signal series of tumors", "setting": "[9]", "result": 7.40}, {"measurement": "proportion of complex-type N-glycans in the tumors", "setting": "[9]", "result": 10, "unit": "%"}, {"measurement": "proportion of high-mannose type N-glycans of the total neutral N-glycans in the tumors", "setting": "[9]", "result": 80, "unit": "%"}, {"measurement": "relative proportion of complex-type N-glycans", "setting": "[5]", "result": "drastically diminished"}]}]}
